Source: EP4656642A1, “ESTROGEN RECEPTOR PROTEOLYSIS TARGETING CHIMERA COMPOUND AND USE THEREOF” (GAN & LEE PHARM CO., LTD, priority 2023, dated 2024)

Columns and labels:
Format in all cases: cell-based
T-47D cells = assay: Inhibition of cell proliferation in T-47D cells (CCK-8, 6 days); details: 6 days of treatment, Table 3
In short: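 Viability read-out was CCK-8 after 6 days of compound treatment (37 °C, 5% CO2) across graded concentrations. Cells were T-47D seeded at 3,000 per well in 1640 medium plus 10% FBS. IC50 was calculated against proliferation.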

MCF-7 cells = assay: Inhibition of cell proliferation of MCF-7 cells (CCK-8, 9 days); details: treated for 9 days, CCK-8 kit (Table 6)
In short: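 Read-out was CCK-8 viability after 9-day continuous exposure (37°C, 5% CO2) of MCF-7 cells plated at 800/well in 10% FBS DMEM across several compound concentrations. Values are proliferation IC50s.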

ERα [1] = molecular target: T1, ERα (Homo sapiens, UniProt P03372); assay: Degradation of ERα in MCF-7 cells (immunoblotting, 4 h)
T1 sequence (P03372 1-595): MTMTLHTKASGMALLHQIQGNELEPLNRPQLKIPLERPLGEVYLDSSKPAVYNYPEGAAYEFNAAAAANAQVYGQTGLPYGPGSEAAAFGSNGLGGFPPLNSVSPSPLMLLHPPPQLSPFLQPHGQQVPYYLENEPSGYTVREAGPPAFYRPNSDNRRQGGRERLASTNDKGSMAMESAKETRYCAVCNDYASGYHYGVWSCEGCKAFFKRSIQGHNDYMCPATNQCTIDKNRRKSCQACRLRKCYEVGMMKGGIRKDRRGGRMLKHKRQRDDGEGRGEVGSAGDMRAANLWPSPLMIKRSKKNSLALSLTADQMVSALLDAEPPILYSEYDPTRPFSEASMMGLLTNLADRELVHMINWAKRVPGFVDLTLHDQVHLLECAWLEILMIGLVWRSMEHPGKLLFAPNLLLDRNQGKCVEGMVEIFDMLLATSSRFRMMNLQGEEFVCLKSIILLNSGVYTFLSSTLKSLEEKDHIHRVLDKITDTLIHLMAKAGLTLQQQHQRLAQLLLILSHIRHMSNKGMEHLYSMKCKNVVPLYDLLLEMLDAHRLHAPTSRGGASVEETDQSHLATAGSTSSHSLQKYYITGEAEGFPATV
In short: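 Degradation rate reflects ERα band intensity, corrected to an internal reference protein, relative to control. Values come from Western blotting of lysates from MCF-7 cells exposed 4 h at 37°C to compounds at final concentrations of 0.15-1000nM.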

ERα [2] = molecular target: T1, ERα; assay: Degradation of ERα in T-47D cells (immunoblotting, 4 h); set-up: host or cells: T-47D
In short: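 ERα protein levels were assessed by immunoblot of RIPA lysates (with protease inhibitor) after 4 h exposure at 37°C. Compound was added in DMSO to T-47D cells at final concentrations of 0.15-1000 nM.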

Row | Compound | IC50 (T-47D cells) | IC50 (MCF-7 cells) | Degradation rate (%) of ERα in MCF-7 cells (ERα [1]; 1nM compound) | Degradation rate (%) of ERα in MCF-7 cells (ERα [1]; 10nM compound) | Degradation rate (%) of ERα in T-47D cells (ERα [2]; 1nM compound) | Degradation rate (%) of ERα in T-47D cells (ERα [2]; 10nM compound)
1 | CC(C)(C(=O)N1CCC2(CC1)COc1c2ccc2c1CN(C1CCC(=O)NC1=O)C2=O)N1CCC2(CCN(c3ccc([C@@H]4c5ccc(O)cc5CC[C@@H]4c4ccccc4)cc3)CC2)C1 (stereo partly drawn) [A91] | 1.11 nM | 325 nM | 2% | 33% | -1% | 49%
2 | O=C1CCC(N2Cc3c(ccc4c3OCC43CCN(C(=O)c4ccc(CN5CCN(c6ccc([C@@H]7c8ccc(O)cc8CC[C@@H]7c7ccccc7)cc6)CC5)nc4)CC3)C2=O)C(=O)N1 (stereo partly drawn) [B47] | 1.29 nM | 27100 nM | 28% | 33% | 59% | 65%
3 | O=C1CCC(N2Cc3c(ccc4c3OCC43CCN(C(=O)C4CCC5(CC4)CCN(c4ccc([C@@H]6c7ccc(O)cc7CC[C@@H]6c6ccccc6)cc4)CC5)CC3)C2=O)C(=O)N1 (stereo partly drawn) [L27] | 8.51 nM | > 100000 nM | 24% | 52% | 12% | 66%
4 | C[C@@H]1Cc2c(ccc3[nH]ncc23)C(c2ccc(N3CCC(N4CC[C@@H](N5CCC6(CC5)COc5c6ccc6c5CN(C5CCC(=O)NC5=O)C6=O)[C@@H](F)C4)CC3)cn2)N1CC(F)(F)F (stereo partly drawn) [H57] | 26.9 nM | 7370 nM | 38% | 60% | 38% | 71%
5 | C[C@@H]1Cc2c([nH]c3ccccc23)[C@@H](c2c(F)cc(N3CCC4(CCN(CC(=O)N5CCC6(CC5)COc5c6ccc6c5CN(C5CCC(=O)NC5=O)C6=O)C4)CC3)cc2F)N1CC(F)F (stereo partly drawn) [A111] | 1.2 nM | 93.6 nM | 39% | 74% | 49% | 82%
6 | O=C1CCC(N2Cc3c(ccc4c3OCC43CCN(C(=O)CN4CC5(CCN(c6ccc([C@@H]7c8ccc(O)cc8CC[C@@H]7c7ccccc7)cc6)CC5)C4)CC3)C2=O)C(=O)N1 (stereo partly drawn) [K8] | 2.07 nM | 10.5 nM | 44% | 64% | 67% | 85%
7 | O=C1CCC(N2Cc3c(ccc4c3OCC43CCN(CCN4CCC5(CCN(c6ccc([C@@H]7c8ccc(O)cc8CC[C@@H]7c7ccccc7)cc6)CC5)C4)CC3)C2=O)C(=O)N1 (stereo partly drawn) [N4] | 3 nM | 132 nM | 54% | 73% | 64% | 85%
8 | C[C@@H]1C[C@H](N2CCC3(CC2)COc2c3ccc3c2CN(C2CCC(=O)NC2=O)C3=O)CCN1C(=O)C1CCN(c2ccc([C@@H]3c4ccc(O)cc4CC[C@@H]3c3ccccc3)cc2)CC1 (stereo partly drawn) [H28] | 1.01 nM | 8.41 nM | 36% | 65% | 62% | 83%
9 | O=C1CCC(N2Cc3cc4c(cc3C2=O)OC2(CC4)CCN(C3CC4(CCN(c5ccc([C@@H]6c7ccc(O)cc7CC[C@@H]6c6ccccc6)cc5)CC4)C3)CC2)C(=O)N1 (stereo partly drawn) [M17] | 8 nM | 30 nM | -9% | 0% | 10% | 20%
10 | O=C1CCC(N2Cc3ccc4c(c3C2=O)OCC2(CCN(CC3CCN(c5ccc([C@@H]6c7ccc(O)cc7CC[C@@H]6c6ccccc6)cc5)CC3)CC2)C4)C(=O)N1 (stereo partly drawn) [H5] | 22.4 nM | 2260 nM | -3% | -12% | 18% | 12%
11 | CCNC(=O)[C@H]1CC(N2CCC3(CC2)COc2c3ccc3c2CN(C2CCC(=O)NC2=O)C3=O)CCN1C1CC2(CCN(c3ccc([C@@H]4c5ccc(O)cc5CC[C@@H]4c4ccccc4)cc3)CC2)C1 (stereo partly drawn) [K26] | 1.12 nM | 48.2 nM | 67% | 88% | 56% | 87%
12 | O=C1CCC(N2Cc3c(ccc4c3OC3(CC4)CCN(C4CCN(C5CN(c6ccc([C@@H]7c8ccc(O)cc8CC[C@@H]7c7ccccc7)cc6)C5)CC4)CC3)C2=O)C(=O)N1 (stereo partly drawn) [A60] | 18.3 nM | 825 nM | -31% | -14% | 11% | -1%
